Laboratory results as given in publication PMC11589582, “Structural mechanisms of human sodium-coupled high-affinity choline transporter CHT1” (Cell Discovery, 2024).

Target: T1, sodium-coupled high-affinity choline transporter CHT1 (Homo sapiens, UniProt Q9GZV3)
T1 construct: gene SLC5A7; Full-length human CHT1 (NP_068587.1) with a C-terminal Strep-tag
T1 sequence (Q9GZV3 1-580): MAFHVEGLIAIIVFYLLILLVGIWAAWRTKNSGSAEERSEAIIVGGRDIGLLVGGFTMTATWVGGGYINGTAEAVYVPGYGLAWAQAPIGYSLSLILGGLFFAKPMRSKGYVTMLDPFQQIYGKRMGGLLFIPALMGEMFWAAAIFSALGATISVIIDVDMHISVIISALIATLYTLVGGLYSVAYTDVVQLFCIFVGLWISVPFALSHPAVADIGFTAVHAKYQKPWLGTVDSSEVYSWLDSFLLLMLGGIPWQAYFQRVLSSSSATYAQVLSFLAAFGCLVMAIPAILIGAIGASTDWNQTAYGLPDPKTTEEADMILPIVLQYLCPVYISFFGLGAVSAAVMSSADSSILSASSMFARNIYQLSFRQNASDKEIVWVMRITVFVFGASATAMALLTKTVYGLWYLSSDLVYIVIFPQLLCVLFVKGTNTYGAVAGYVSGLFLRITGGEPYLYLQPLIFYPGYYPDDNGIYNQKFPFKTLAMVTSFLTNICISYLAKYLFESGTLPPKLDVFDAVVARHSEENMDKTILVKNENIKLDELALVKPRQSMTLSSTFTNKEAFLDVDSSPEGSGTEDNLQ
Experiment: cryo-EM structure at […] Å; [3H]-choline uptake inhibition in CHT1-expressing HEK293 cells
Type: cell-based

C[N+]1(C)CCOC(O)(c2ccc(-c3ccc(C4(O)C[N+](C)(C)CCO4)cc3)cc2)C1 (stereo not shown) [HC3, hemicholinium-3]
IC50: 4.98 ± 1.04 nM
